Results reported in patent US10597388B2, “Pyridazinone herbicides” (FMC CORPORATION, priority 2014, dated 2020).

Legend:
Experiment in all cases: Test E greenhouse herbicide test, pre- and postemergence
Assay type in all cases: in vivo
[1] = system: arrowleaf sida (Sida rhombifolia)
Description: (§1) Seeds of plant species selected from corn (Zea mays), soybean (Glycine max), velvetleaf (Abutilon theophrasti), lambsquarters (Chenopodium album), wild poinsettia (Euphorbia heterophylla), pigweed, palmer (palmer pigweed, Amaranthus palmeri), waterhemp (common waterhemp, Amaranthus rudis), surinam grass (Brachiaria decumbens), crabgrass, large (large crabgrass, Digitaria sanguinalis), crabgrass, Brazilian (Brazilian crabgrass, Digitaria horizontalis), panicum, fall (fall panicum, Panicum dichotomiflorum), foxtail, giant (giant foxtail, Setaria faberii), foxtail, green (green foxtail, Setaria viridis), goosegrass (Eleusine indica), johnsongrass (Sorghum halepense), ragweed (common ragweed, Ambrosia elatior), barnyardgrass (Echinochloa crus-galli), sandbur (southem sandbur, Cenchrus echinatus), arrowleaf sida (Sida rhombifolia), Italian ryegrass (Lolium multiflorum), dayflower (Virginia (VA) dayflower, Commelina virginica), field bindweed (Convolvulus arvensis), momingglory (Ipomoea coccinea), nightshade (eastern black nightshade, Solanum ptycanthum), kochia (Kochia scoparia), nutsedge, yellow (yellow nutsedge, Cyperus esculentus), horseweed (Conyza canadensis), and beggarticks (hairy beggarticks, Bidens pilosa), were planted into a silt loam soil and treated preemergence with test chemicals formulated in a non-phytotoxic solvent mixture which included a surfactant.
(§2) At the same time, plants from these crop and weed species and also waterhemp_RES1, (ALS & Triazine resistant common waterhemp, Amaranthus rudis), and waterhemp_RES2, (ALS & HPPD resistant common waterhemp, Amaranthus rudis) were planted in pots containing Redi-Earth® planting medium (Scotts Company, 14111 Scottslawn Road, Marysville, Ohio 43041) comprising spaghnum peat moss, vermiculite, wetting agent and starter nutrients were treated with postemergence applications of test chemicals formulated in the same manner. Plants ranged in height from 2 to 18 cm for postemergence treatments (1- to 4-leaf stage). Treated plants and controls were maintained in a greenhouse for 14 to 21 d, after which time all species were compared to controls and visually evaluated. Plant response ratings, summarized in Table E, are based on a scale of 0 to 100 where 0 is no effect and 100 is complete control. A dash (-) response means no test result.

[2] = system: barnyardgrass (Echinochloa crus-galli)
Description: as §1, §2

[3] = system: corn (Zea mays)
Description: as §1, §2

[4] = system: crabgrass, Brazilian (Brazilian crabgrass, Digitaria horizontalis)
Description: as §1, §2

[5] = system: dayflower (Virginia (VA) dayflower, Commelina virginica)
Description: as §1, §2

[6] = system: field bindweed (Convolvulus arvensis)
Description: as §1, §2

[7] = system: foxtail, green (green foxtail, Setaria viridis); conditions: Preemergence
Description: as §1, §2

[8] = system: goosegrass (Eleusine indica); conditions: Preemergence
Description: as §1, §2

[9] = system: lambsquarters (Chenopodium album); conditions: Preemergence
Description: as §1, §2

[10] = system: nightshade (eastern black nightshade, Solanum ptycanthum); conditions: Preemergence
Description: as §1, §2

[11] = system: panicum, fall (fall panicum, Panicum dichotomiflorum)
Description: as §1, §2

[12] = system: pigweed, palmer (palmer pigweed, Amaranthus palmeri)
Description: as §1, §2

[13] = system: ragweed (common ragweed, Ambrosia elatior); conditions: Preemergence
Description: as §1, §2

[14] = system: soybean (Glycine max)
Description: as §1, §2

[15] = system: surinam grass (Brachiaria decumbens); conditions: Preemergence
Description: as §1, §2

[16] = 62 g ai/ha, Postemergence, scale 0 to 100 (0 no effect, 100 complete control)
[17] = 62 g ai/ha, Preemergence, scale 0 to 100 (0 no effect, 100 complete control)
[18] = 125 g ai/ha, Postemergence, scale 0 to 100 (0 no effect, 100 complete control)
[19] = 250 g ai/ha, Postemergence, scale 0 to 100 (0 no effect, 100 complete control)
[20] = Postemergence, 16 g ai/ha, visual, scale 0 no effect to 100 complete control
[21] = Postemergence, 31 g ai/ha, visual, scale 0 no effect to 100 complete control
[22] = Preemergence, 16 g ai/ha, scale 0 to 100, 0 no effect, 100 complete control
[23] = Preemergence, 31 g ai/ha, scale 0 to 100, 0 no effect, 100 complete control
[24] = Preemergence, 125 g ai/ha, visual, scale 0 no effect to 100 complete control
[25] = Preemergence, 250 g ai/ha, visual, scale 0 no effect to 100 complete control
[26] = 62 g ai/ha, scale 0 to 100 (0 no effect, 100 complete control)
[27] = 16 g ai/ha, scale 0 to 100, 0 no effect, 100 complete control
[28] = 31 g ai/ha, scale 0 to 100, 0 no effect, 100 complete control
[29] = 125 g ai/ha, visual, scale 0 no effect to 100 complete control
[30] = 250 g ai/ha, visual, scale 0 no effect to 100 complete control
[31] = 125 g ai/ha, scale 0 to 100 (0 no effect, 100 complete control)
[32] = 125 g ai/ha, Preemergence, scale 0 to 100 (0 no effect, 100 complete control)

Structure (SMILES): Cc1ccc2sc(C)c(-c3c(O)c(C)nn(C)c3=O)c2c1 [Compound 1, 4-(2,5-dimethylbenzo[b]thien-3-yl)-5-hydroxy-2,6-dimethyl-3(2H)-pyridazinone]
- Plant response rating, Arrowleaf Sida [1, 16]: 70
- Plant response rating, Arrowleaf Sida [1, 17]: 65
- Plant response rating, Arrowleaf Sida [1, 18]: 70
- Plant response rating, Arrowleaf Sida [1, 19]: 80
- Plant response rating, Arrowleaf Sida [1, 20]: 30
- Plant response rating, Arrowleaf Sida [1, 21]: 50
- Plant response rating, Arrowleaf Sida [1, 22]: 0
- Plant response rating, Arrowleaf Sida [1, 23]: 0
- Plant response rating, Arrowleaf Sida [1, 24]: 75
- Plant response rating, Arrowleaf Sida [1, 25]: 80
- Plant response rating, Barnyardgrass [2, 16]: 20
- Plant response rating, Barnyardgrass [2, 17]: 0
- Plant response rating, Barnyardgrass [2, 18]: 25
- Plant response rating, Barnyardgrass [2, 19]: 35
- Plant response rating, Barnyardgrass [2, 20]: 10
- Plant response rating, Barnyardgrass [2, 21]: 15
- Plant response rating, Barnyardgrass [2, 22]: 0
- Plant response rating, Barnyardgrass [2, 23]: 0
- Plant response rating, Barnyardgrass [2, 24]: 0
- Plant response rating, Barnyardgrass [2, 25]: 20
- Plant response rating, Corn [3, 16]: 5
- Plant response rating, Corn [3, 17]: 0
- Plant response rating, Corn [3, 18]: 5
- Plant response rating, Corn [3, 19]: 5
- Plant response rating, Corn [3, 20]: 0
- Plant response rating, Corn [3, 21]: 5
- Plant response rating, Corn [3, 22]: 0
- Plant response rating, Corn [3, 23]: 0
- Plant response rating, Corn [3, 24]: 0
- Plant response rating, Corn [3, 25]: 0
- Plant response rating, Crabgrass, Brazil [4, 16]: 15
- Plant response rating, Crabgrass, Brazil [4, 17]: 80
- Plant response rating, Crabgrass, Brazil [4, 18]: 20
- Plant response rating, Crabgrass, Brazil [4, 19]: 35
- Plant response rating, Crabgrass, Brazil [4, 20]: 0
- Plant response rating, Crabgrass, Brazil [4, 21]: 15
- Plant response rating, Crabgrass, Brazil [4, 22]: 0
- Plant response rating, Crabgrass, Brazil [4, 23]: 10
- Plant response rating, Crabgrass, Brazil [4, 24]: 100
- Plant response rating, Crabgrass, Brazil [4, 25]: 100
- Plant response rating, Dayflower, VA [5, 16]: 0
- Plant response rating, Dayflower, VA [5, 17]: 20
- Plant response rating, Dayflower, VA [5, 18]: 30
- Plant response rating, Dayflower, VA [5, 19]: 50
- Plant response rating, Dayflower, VA [5, 20]: 0
- Plant response rating, Dayflower, VA [5, 21]: 0
- Plant response rating, Dayflower, VA [5, 22]: 0
- Plant response rating, Dayflower, VA [5, 23]: 0
- Plant response rating, Dayflower, VA [5, 24]: 15
- Plant response rating, Dayflower, VA [5, 25]: 25
- Plant response rating, Field Bindweed [6, 16]: 70
- Plant response rating, Field Bindweed [6, 17]: 80
- Plant response rating, Field Bindweed [6, 18]: 85
- Plant response rating, Field Bindweed [6, 19]: 95
- Plant response rating, Field Bindweed [6, 20]: 65
- Plant response rating, Field Bindweed [6, 21]: 65
- Plant response rating, Field Bindweed [6, 22]: 5
- Plant response rating, Field Bindweed [6, 23]: 20
- Plant response rating, Field Bindweed [6, 24]: 95
- Plant response rating, Field Bindweed [6, 25]: 100
- Plant response rating, Foxtail, Green [7, 26]: 70
- Plant response rating, Foxtail, Green [7, 27]: 0
- Plant response rating, Foxtail, Green [7, 28]: 15
- Plant response rating, Foxtail, Green [7, 29]: 90
- Plant response rating, Foxtail, Green [7, 30]: 90
- Plant response rating, Goosegrass [8, 26]: 5
- Plant response rating, Goosegrass [8, 27]: 0
- Plant response rating, Goosegrass [8, 28]: 15
- Plant response rating, Goosegrass [8, 29]: 35
- Plant response rating, Goosegrass [8, 30]: 25
- Plant response rating, Lambsquarters [9, 26]: 98
- Plant response rating, Lambsquarters [9, 27]: 65
- Plant response rating, Lambsquarters [9, 28]: 65
- Plant response rating, Lambsquarters [9, 29]: 100
- Plant response rating, Lambsquarters [9, 30]: 100
- Plant response rating, Nightshade [10, 26]: 95
- Plant response rating, Nightshade [10, 31]: 100
- Plant response rating, Nightshade [10, 27]: 80
- Plant response rating, Nightshade [10, 28]: 90
- Plant response rating, Nightshade [10, 30]: 100
- Plant response rating, Panicum, Fall [11, 16]: 75
- Plant response rating, Panicum, Fall [11, 17]: 90
- Plant response rating, Panicum, Fall [11, 18]: 80
- Plant response rating, Panicum, Fall [11, 32]: 95
- Plant response rating, Panicum, Fall [11, 19]: 85
- Plant response rating, Panicum, Fall [11, 20]: 70
- Plant response rating, Panicum, Fall [11, 21]: 75
- Plant response rating, Panicum, Fall [11, 22]: 65
- Plant response rating, Panicum, Fall [11, 23]: 75
- Plant response rating, Panicum, Fall [11, 25]: 100
- Plant response rating, Pigweed, Palmer [12, 16]: 90
- Plant response rating, Pigweed, Palmer [12, 17]: 100
- Plant response rating, Pigweed, Palmer [12, 18]: 75
- Plant response rating, Pigweed, Palmer [12, 32]: 100
- Plant response rating, Pigweed, Palmer [12, 19]: 98
- Plant response rating, Pigweed, Palmer [12, 20]: 70
- Plant response rating, Pigweed, Palmer [12, 21]: 20
- Plant response rating, Pigweed, Palmer [12, 22]: 20
- Plant response rating, Pigweed, Palmer [12, 23]: 90
- Plant response rating, Pigweed, Palmer [12, 25]: 100
- Plant response rating, Ragweed [13, 26]: 75
- Plant response rating, Ragweed [13, 31]: 100
- Plant response rating, Ragweed [13, 27]: 35
- Plant response rating, Ragweed [13, 28]: 70
- Plant response rating, Ragweed [13, 30]: 100
- Plant response rating, Soybean [14, 16]: 10
- Plant response rating, Soybean [14, 17]: 15
- Plant response rating, Soybean [14, 18]: 15
- Plant response rating, Soybean [14, 32]: 40
- Plant response rating, Soybean [14, 19]: 20
- Plant response rating, Soybean [14, 20]: 0
- Plant response rating, Soybean [14, 21]: 0
- Plant response rating, Soybean [14, 22]: 0
- Plant response rating, Soybean [14, 23]: 0
- Plant response rating, Soybean [14, 25]: 75
- Plant response rating, Surinam Grass [15, 26]: 50
- Plant response rating, Surinam Grass [15, 31]: 80
- Plant response rating, Surinam Grass [15, 27]: 0
- Plant response rating, Surinam Grass [15, 28]: 25
- Plant response rating, Surinam Grass [15, 30]: 75
